Measured values published in patent US20220233566A1, “NOVEL CARBONATE COMPOUND HAVING PYRROLOPYRIMIDINE SKELETON OR PHARMACEUTICALLY ACCEPTABLE SALT THEREOF” (TAIHO PHARMACEUTICAL CO., LTD., priority 2019, published 2022).

Tests used:
[1] = Presence of prodrug in mouse and absorbency (plasma AUC after oral administration); format: in vivo; conditions: male, Balb/cA, mouse, 7.6 umol/kg, mice, 7.6 μmol/kg, administered compound itself in plasma, read-out: AUC0-6hr
Experimental: The dosage amounts of the compounds of Comparative Examples 1 to 5 and Examples 1 to 26 are those (mole/10 mL/kg) shown in Tables. Solutions for administration were prepared with an 0.5% aqueous solutions of HPMC so as to satisfy the dosage amounts.
Note that, the “amount of mole/10 mL/kg” means as follows: for example “10 mmol/10 mL/kg” means that 10 mmol of a test compound per body-weight (1 kg) of a mouse was dispersed or dissolved in a solution (10 mL) for administration. The same applies hereinafter.
The solutions for administration prepared above were orally administered to mice (Balb/cA, male) not fasted each by use of an oral administration sonde.
The mice were anesthetized with isoflurane 0.5, 1, 2, 4 and 6 hours after administration and blood was taken from the facial vein by use of a specific needle (animal lancet) and a heparin-coated hematocrit tube.
The blood sampled was immediately centrifuged (13000 rpm, 2 minutes, 4° C.) to prepare the plasma samples. After proteins were removed from the plasma samples, the concentrations of the test compound in the plasma samples were measured by LC/MS/MS.
The value of “area under the curve” (AUC) of drug concentration in blood versus time was calculated using analysis software such as Phoenix (registered trademark) WinNonlin (registered trademark).
In Table 3, “Comparative Example 1” and “Comparative Example 2” represent the “compound (Br form) of Comparative Example 1” and the “compound (I form) of Comparative Example 2”, respectively. In Table 4, “Comparative Example 6” represents the “compound (C1 form) of Comparative Example 6”.

A172 = test: Growth suppression activity in human tumor cell line; format: cell-based; conditions: A 172, 72 h; Human brain tumor, A172, 3 days
Experimental: (§1) Human tumor cell lines different in type were suspended in mediums, seeded in individual wells of a multi-well plate and cultured. On the day after initiation of culture, serially diluted solutions of a compound were added. Culture was carried out for further 3 days. Cells were counted by a CellTiter-Glo (manufactured by Promega KK) in accordance with the protocol recommended by Promega KK. Cell viability was calculated in accordance with the equation shown below and the concentration (IC50 (μM)) of the compound at which 50% of cell growth is inhibited was obtained.
(§2) T: Intensity of light emitted from a well containing a compound
(§3) C: Intensity of light emitted from a well containing no compound

CCRFCEM = test: as above; format: cell-based; conditions: CCRF-CEM, 72 h, Human hematopoietic organ tumor, 3 days
Experimental: as §1, §2, §3

CFPAC1 = test: as above; format: cell-based; conditions: CFPAC-1, 72 h; Human pancreatic cancer, CFPAC1, 3 days
Experimental: as §1, §2, §3

DLD1 = test: as above; format: cell-based; conditions: DLD-1, 72 h; Human colorectal cancer, DLD1, 3 days
Experimental: as §1, §2, §3

H1703 = test: as above; format: cell-based; conditions: NCI-H1703, 72 h; Human lung cancer, H1703, 3 days
Experimental: as §1, §2, §3

H69 = test: as above; format: cell-based; conditions: NCI-H69, 72 h; Human lung cancer, H69, 3 days
Experimental: as §1, §2, §3

HCT116 = test: as above; format: cell-based; conditions: HCT-116, 72 h; Human colorectal cancer, HCT116, 3 days
Experimental: as §1, §2, §3

HT29 = test: as above; format: cell-based; conditions: HT-29, 72 h; Human colorectal cancer, HT29, 3 days
Experimental: as §1, §2, §3

LN229 = test: as above; format: cell-based; conditions: LN-229, 72 h; Human brain tumor, LN229, 3 days
Experimental: as §1, §2, §3

MIAPACA2 = test: as above; format: cell-based; conditions: MIA PaCa-2, 72 h; Human pancreatic cancer, MIAPACA2, 3 days
Experimental: as §1, §2, §3

MKN45 = test: as above; format: cell-based; conditions: MKN-45, 72 h; Human stomach cancer, MKN45, 3 days
Experimental: as §1, §2, §3

MOLT4 = test: as above; format: cell-based; conditions: MOLT-4, 72 h; Human hematopoietic organ tumor, MOLT4, 3 days
Experimental: as §1, §2, §3

MV-4-11 = test: as above; format: cell-based; conditions: MV4-11, 72 h; Human hematopoietic organ tumor, MV-4-11, 3 days
Experimental: as §1, §2, §3

A427 = test: Growth suppression activity to human tumor cell line (Evaluation 3); format: cell-based; conditions: A-427, 72 h; Human lung cancer, A427, 3 days
Experimental: as §1, with “(IC50 (nM))” for “(IC50 (μM))”, “of a” for “of the”
as §2, §3

H520 = test: as above; format: cell-based; conditions: NCI-H520, 72 h; Human lung cancer, H520, 3 days
Experimental: as §1, with “(IC50 (nM))” for “(IC50 (μM))”, “of a” for “of the”
as §2, §3

[2] = test system: human brain tumor cell line (U-87 MG); test: Evaluation 1 of antitumor effect and toxicity in mouse (U-87 MG subcutaneous transplant); format: in vivo, BALB/cA Jcl-nu/nu mice; conditions: oral every day; Comparative Example 2 12 mg/kg/day, Example 1 15.4 mg/kg/day
Experimental: The day of grouping mice was determined Day 0.
IRs of Comparative Example 2-compound administration group and Example 1-compound administration group on the final day of evaluation (Day 6 in Comparative Example 2 and Day 13 in Example 1) are shown in FIG. 1 and BWC versus elapsed days is shown in FIG. 2.

[3] = test system: human brain tumor cell line (U-87 MG); test: Combination use of compound and radiation, cell viability (crystal violet); format: cell-based; conditions: any order (same-day, compound first, radiation first), Student's t-test
Experimental: A human brain tumor cell line (U-87 MG) was suspended in a medium, seeded in individual wells of a multi-well plate and cultured. In the case where radiation exposure and addition of a compound are simultaneously carried out, both treatments were carried out on two days after initiation of culture. In the case where addition of a compound preceded radiation exposure, a serially diluted solution of a compound was added on the day after initiation of culture and radiation exposure was carried out on two days after initiation of culture. In the case where radiation exposure preceded addition of a compound, radiation exposure was carried out on the day after initiation of culture and a serially diluted solution of a compound was added on the two days after initiation of culture. Day 5 after seeding, cells were fixed with a 25% aqueous solution of glutaraldehyde and stained with a staining fluid (0.05 w/v % crystal violet in 20% methanol). After an extract (0.1 N NaH2PO4: 100% ethanol=1:1) was added and stirred, an absorbance at 540 nm was measured to obtain a cell count. The cell viability was calculated in accordance with the following equation and statistically processed in accordance with a Student's t-test.
T: Absorbance of a well exposed to radiation or containing a compound
C: Absorbance of a well neither exposed to radiation nor containing a compound

[4] = test system: human brain tumor cell line (U-87 MG); test: Combinational effect of compound and temozolomide (TMZ), cell viability (crystal violet); format: cell-based; conditions: any order (same-day, compound first, TMZ first), Student's t-test
Experimental: A human brain tumor cell line (U-87 MG) was suspended in a medium, seeded in individual wells of a multi-well plate and cultured. In the case where two compounds are simultaneously added, both compounds were added on two days after initiation of culture. In the case where addition of the compound of the present invention preceded, a serially diluted solution of the compound was added on the day after initiation of culture and a serially diluted solution of TMZ was added two days after initiation of culture. In the case where addition of TMZ preceded, a serially diluted solution of TMZ was added on the day after initiation of culture and a serially diluted solution of the compound was added on two days after initiation of culture. Day 5 after seeding, cells were fixed with a 25% aqueous solution of glutaraldehyde and stained with a staining fluid (0.05 w/v % crystal violet in 20% methanol). After an extract (0.1 N NaH2PO4: 100% ethanol=1:1) was added and stirred, an absorbance at 540 nm was measured to obtain a cell count. The cell viability was calculated in accordance with the following equation and statistically processed in accordance with a Student's t-test.
T: Absorbance of a well containing TMZ or a compound
C: Absorbance of a well containing neither TMZ nor a compound

AUC(0-t) [1]: 0.21 µM·h | IC50 (A172): 30 nM | IC50 (CCRFCEM): 40 nM | IC50 (CFPAC1): 50 nM | IC50 (DLD1): 40 nM | IC50 (H1703): 40 nM | IC50 (H69): 60 nM | IC50 (HCT116): 90 nM | IC50 (HT29): 130 nM | IC50 (LN229): 20 nM | IC50 (MIAPACA2): 40 nM | IC50 (MKN45): 130 nM | IC50 (MOLT4): 10 nM | IC50 (MV-4-11): 4 nM | IC50 (A427): 98 nM | IC50 (H520): 29 nM
SMILES: Nc1ncnc2c1c(I)cn2[C@@H]1O[C@H](CO)[C@@H](O)[C@@H]1F [Comparative Example 2, (2R,3R,4S,5R)-5-(4-amino-5-iodo-7H-pyrrolo[2,3-d]pyrimidin-7-yl)-4-fluoro-2-(hydroxymethyl) tetrahydrofuran-3-ol]
final day of evaluation (administration continued as long as weight loss was acceptable, until 20% or more) [2]: 6 days | cell viability, combination treatment with radiation exposure compared to the single treatments [3]: cell viability significantly decreased | cell viability, combination treatment with TMZ compared to the single treatments [4]: significant decrease in cell viability
